Laboratory results as given in publication PMC6491934 (Frontiers in Microbiology, 2019).
Where two headings read alike, the source gives them in different places.

Legend:
PrtP [1] = assay: proteinase extract of BGMN1-501 cells in 0.1 mol/L sodium phosphate buffer (NaPi, pH 7); details: Lactococcus lactis subsp. lactis BGMN1-501, up to 20 h
PrtP [2] = assay: culture of Lactococcus lactis subsp. lactis BGMN1-501 in chemically defined growth medium (CDM) with addition of 0.5% casitone; cell-free supernatant; details: Lactococcus lactis subsp. lactis BGMN1-501, 30°C, up to 16 h
proteinase PrtP [3] = format: in vitro ADME, Lactococcus lactis subsp. lactis BGMN1-501
Protocol: Bacteriocin activity of BGMN1-501, as well as of recombinantly produced bacteriocin was evaluated by an agar-well diffusion test ([Lozo et al., 2004]). The activity of HPLC-obtained fractions and of chemically synthesized bacteriocin was evaluated by spot-on-lawn assays. Soft GM17 agar (0.75%, w/v) containing sensitive strain was overlaid onto thin GM17 agar plates. After soft agar solidified, 10 μL of sample was spotted and plates were incubated at 30°C overnight. Clear zones of growth inhibition in the spots were used as positive signals. Lactococcus lactis subsp. lactis BGMN1-596 was used in all tests as sensitive strain. Proteinase extract was prepared as following: BGMN1-501 was grown on milk citrate agar plates, collected and re-suspended in 0.1 mol/L sodium phosphate buffer (NaPi, pH 7), incubated at room temperature for 30 min, pelleted by centrifugation and supernatants were collected prior to reactions. In vitro testing of effect of proteinase extract on bacteriocin activity was done as previously described ([Vukotic et al., 2015]), except that recombinant bacteriocins were used as substrates in the reactions.

proteinase PrtP [4] = format: in vitro ADME, Lactococcus lactis subsp. lactis BGMN1-501; remark: listed apart in the source
Protocol: For the purification and mass spectrometric analysis of the bacteriocin in Lactococcus lactis subsp. lactis BGMN1-501, the strain was grown at 30°C for 16 h in 500 mL of chemically defined growth medium (CDM)with addition of 0.5% casitone (Difco Laboratories, Becton Dickinson and Company, Franklin Lakes, NJ, United States). The bacteriocin was purified following the protocol of [Mirkovic et al. (2016)]. Briefly, the cells were removed by centrifugation (4,500 × g for 30 min at 4°C), while the supernatant was saturated up to 40% with ammonium sulfate, and precipitated with stirring for 2 h at 4°C. The precipitate was collected by centrifugation (10,000 × g for 30 min at 4°C) and then dissolved in 5 mL of Milli-Q water containing 0.1% trifluoroacetic acid. The bacteriocin was further purified using reverse-phase high-performance liquid chromatography (HPLC). […] The chromatography was monitored by measuring absorbance at 215 nm. […] Both recombinant peptides and the reaction mixtures of LcnB and PrtP were analyzed using the same reverse-phase chromatography as used for bacteriocin purification (see Section “Bacteriocin LcnB Purification From Lactococcus lactis subsp. lactis BGMN1-501”).

BGMN1-596 = assay: Glucose-uptake inhibition assay (growth of BGMN1-596 in GM17); format: cell-based, Lactococcus lactis subsp. lactis; details: chemically synthetized LcnB^∗, 0–1,000 μg/mL (highest concentration), BGMN1-596 5% inoculum in GM17, OD 600 nm over 6 h, triplicate
Protocol: To test whether truncated peptide can interfere with glucose import, growth of BGMN1-596 in GM17 with added LcnB^∗ was monitored. Fresh overnight culture, grown in GM17, was inoculated at 5% to fresh media, and saturated with increased concentrations (0–1,000 μg/mL) of chemically synthetized LcnB^∗. As a control, the same inoculum was made in media without glucose. Bacterial growth was monitored in microtitar plates by OD measurement at 600 nm at different time points for 6h. The assay was done in triplicate.

[5] = system: LcnB receptor on sensitive BGMN1-596 cells (man-PTS); assay: Bacteriocin competition assay; format: cell-based, Lactococcus lactis subsp. lactis; details: 10 μL of 62.5–1,000 μg/mL LcnB^∗ adsorbed 30 min at room temperature, then 50 μL BGMN1-501 culture, overnight 30°C
Protocol: The possibility of truncated peptide LcnB^∗ to compete with wild type LcnB for binding to its receptor molecule was tested in bacteriocin competition assay. Bacteriocin assay was prepared, as explained above. Before addition of bacteriocin producer, 10 μL of increasing concentrations (62.5–1,000 μg/mL) of LcnB^∗ was added to the wells made in soft agar and left for 30 min at room temperature to be completely adsorbed. After that, 50 μL of fresh BGMN1-501 culture was added to the wells, and incubated overnight at 30°C to produce growth inhibition zones.

[6] = system: Lactococcus lactis subsp. lactis BGMN1-596; assay: Spot-on-lawn bacteriocin activity assay; format: cell-based; details: sensitive strain BGMN1-596, 30°C overnight
Protocol: The activity of HPLC-obtained fractions and of chemically synthesized bacteriocin was evaluated by spot-on-lawn assays. Soft GM17 agar (0.75%, w/v) containing sensitive strain was overlaid onto thin GM17 agar plates. After soft agar solidified, 10 μL of sample was spotted and plates were incubated at 30°C overnight. Clear zones of growth inhibition in the spots were used as positive signals. Lactococcus lactis subsp. lactis BGMN1-596 was used in all tests as sensitive strain.

| Sequence | cleaved bond (PrtP [1]) | cleaved bond (PrtP [2]) | bacteriocin activity after incubation with PrtP extract (proteinase PrtP [3]) | bacteriocin activity after incubation with PrtP extract (proteinase PrtP [3]; pH 7) | PrtP cleavage site in the peptide (proteinase PrtP [4]) | amount of peptide left after PrtP hydrolysis (proteinase PrtP [4]) | effect on bacterial growth (interference with glucose import) (BGMN1-596) | effect of pretreatment on bacteriocin activity of wild type LcnB (competition for the receptor) [5] | antimicrobial activity (growth inhibition zone) ([6]; chemically synthesized peptide (Biomatik), 10 μL spotted, up to 1 mg/mL) | antimicrobial activity (growth inhibition zone) ([6]; recombinant peptide (pMAL system, E. coli ER2523), 50–500 μg/mL) |
| --- | --- | --- | --- | --- | --- | --- | --- | --- | --- | --- |
| SLQYVMSAGPYTWYKDTRTGKTICKQTIDTASYTFGVMAEGWGKTFH | methionine6-serine7, major, 3 h | methionine6-serine7 | – | – | – | – | – | – | – | – |
| SLQYVMSAGPYTWYKDTRTGKTICKQTIDTASYTFGVMAEGWGKTFH [LcnB, bacteriocin of Lactococcus lactis subsp. lactis BGMN1-501, mature peptide, produced recombinantly in E. coli ER2523] | – | – | no activity could be detected | reduced the bacteriocin activity | between sixth and seventh amino acid | drastically reduced | did not alter bacterial growth | did not influence the latter bacteriocin activity of wild type molecule | inactive | strong antimicrobial activity |
